{"source": "ChEMBL document CHEMBL4665820", "about": "“Discovery of VU6027459: A First-in-Class Selective and CNS Penetrant mGlu Positive Allosteric Modulator Tool Compound” (ACS Med Chem Lett, 2020)", "key": {"[1]": {"organism": "Rattus norvegicus", "experiment": "Displacement of [3H]-TCP from NMDA glutamate receptor phencyclidine binding site in rat at 10 uM incubated for 45 mins by scintillation counting analysis relative to control"}, "[2]": {"molecular_target": "Sigma non-opioid intracellular receptor 1 (Homo sapiens, UniProt Q99720)", "sequence (Q99720 whole entry)": "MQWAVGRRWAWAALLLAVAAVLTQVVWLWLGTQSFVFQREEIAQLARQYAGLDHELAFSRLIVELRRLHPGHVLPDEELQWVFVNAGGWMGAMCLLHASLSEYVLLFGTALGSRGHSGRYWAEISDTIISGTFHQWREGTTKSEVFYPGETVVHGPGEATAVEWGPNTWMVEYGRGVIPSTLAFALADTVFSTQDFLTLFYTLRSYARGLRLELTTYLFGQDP", "experiment": "Displacement of [3H]-Pentazocine from human recombinant sigma 1 receptor at 10 uM incubated for 120 mins by scintillation counting analysis relative to control"}, "[3]": {"molecular_target": "Metabotropic glutamate receptor 7 (Homo sapiens) (UniProt Q14831)", "sequence (Q14831 whole entry)": "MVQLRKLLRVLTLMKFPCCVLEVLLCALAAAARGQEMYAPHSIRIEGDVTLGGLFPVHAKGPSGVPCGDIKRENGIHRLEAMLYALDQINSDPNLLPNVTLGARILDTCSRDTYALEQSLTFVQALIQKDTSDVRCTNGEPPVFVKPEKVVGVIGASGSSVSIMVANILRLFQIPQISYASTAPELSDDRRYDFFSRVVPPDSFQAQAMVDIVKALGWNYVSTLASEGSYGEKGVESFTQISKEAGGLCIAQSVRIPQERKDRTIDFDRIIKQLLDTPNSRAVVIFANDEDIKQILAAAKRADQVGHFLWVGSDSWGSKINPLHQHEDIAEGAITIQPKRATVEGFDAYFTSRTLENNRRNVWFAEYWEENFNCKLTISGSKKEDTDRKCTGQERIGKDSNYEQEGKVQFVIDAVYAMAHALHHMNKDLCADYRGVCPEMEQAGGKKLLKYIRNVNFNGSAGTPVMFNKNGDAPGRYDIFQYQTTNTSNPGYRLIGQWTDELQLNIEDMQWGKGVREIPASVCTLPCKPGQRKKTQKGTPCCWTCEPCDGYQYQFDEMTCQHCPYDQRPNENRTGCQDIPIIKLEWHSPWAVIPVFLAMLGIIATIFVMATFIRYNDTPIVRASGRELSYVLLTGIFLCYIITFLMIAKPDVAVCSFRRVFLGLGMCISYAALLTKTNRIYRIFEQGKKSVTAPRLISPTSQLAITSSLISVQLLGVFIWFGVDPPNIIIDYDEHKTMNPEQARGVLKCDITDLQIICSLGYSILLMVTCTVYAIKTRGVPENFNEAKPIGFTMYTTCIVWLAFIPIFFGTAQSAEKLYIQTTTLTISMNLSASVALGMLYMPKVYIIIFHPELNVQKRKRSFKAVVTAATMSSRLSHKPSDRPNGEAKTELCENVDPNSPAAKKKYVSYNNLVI", "experiment": "Positive allosteric modulation of human mGlu7 receptor", "details": "filed as positive allosteric modulator; tested as the 2H-labelled form"}, "[4]": {"organism": "Rattus norvegicus", "experiment": "Displacement of [3H]-idazoxan from rat imidazoline I2 receptor at 10 uM incubated for 30 mins by scintillation counting analysis relative to control"}, "[5]": {"experiment": "Hepatic intrinsic clearance in rat liver microsomes at 1 uM preincubated for 5 mins followed by NADPH addition and measured up to 45 mins by LC-MS/MS analysis", "assay_type": "ADME, Microsome", "details": "read-out: CLH"}, "[6]": {"molecular_target": "Kappa-type opioid receptor (Homo sapiens) (UniProt P41145)", "sequence (P41145 whole entry)": "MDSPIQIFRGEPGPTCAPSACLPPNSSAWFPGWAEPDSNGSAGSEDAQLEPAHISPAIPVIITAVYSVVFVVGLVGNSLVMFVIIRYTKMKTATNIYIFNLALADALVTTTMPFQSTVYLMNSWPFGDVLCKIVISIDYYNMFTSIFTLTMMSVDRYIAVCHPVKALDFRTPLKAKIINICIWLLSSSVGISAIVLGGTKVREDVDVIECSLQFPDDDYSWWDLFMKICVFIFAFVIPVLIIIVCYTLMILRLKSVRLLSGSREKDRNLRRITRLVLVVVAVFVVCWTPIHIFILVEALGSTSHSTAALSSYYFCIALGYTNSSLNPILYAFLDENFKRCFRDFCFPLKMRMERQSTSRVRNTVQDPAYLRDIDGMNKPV", "experiment": "Displacement of [3H]U69593 from human kappa receptor at 10 uM after 60 mins by scintillation counting analysis relative to control"}, "[7]": {"molecular_target": "Endothelin-1 receptor (Homo sapiens) (UniProt P25101)", "sequence (P25101 whole entry)": "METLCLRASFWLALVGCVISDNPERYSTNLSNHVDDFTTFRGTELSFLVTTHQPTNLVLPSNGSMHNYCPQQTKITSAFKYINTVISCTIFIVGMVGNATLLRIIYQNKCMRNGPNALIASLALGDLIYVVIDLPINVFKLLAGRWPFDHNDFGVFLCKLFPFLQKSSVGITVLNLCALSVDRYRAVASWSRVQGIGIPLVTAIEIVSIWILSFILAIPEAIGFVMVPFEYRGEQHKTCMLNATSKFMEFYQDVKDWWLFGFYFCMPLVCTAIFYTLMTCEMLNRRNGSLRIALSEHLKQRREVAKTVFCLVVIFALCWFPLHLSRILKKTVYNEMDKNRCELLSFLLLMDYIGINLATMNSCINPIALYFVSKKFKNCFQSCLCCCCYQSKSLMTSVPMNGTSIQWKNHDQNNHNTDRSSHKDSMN", "experiment": "Displacement of [125I]-endothelin-1 from human recombinant ETA receptor at 10 uM after 120 mins by scintillation counting analysis relative to control"}, "[8]": {"organism": "Rattus norvegicus", "experiment": "Displacement of [3H]-MDL105519 from NMDA glutamate receptor glycine binding site in rat at 10 uM incubated for 30 mins by scintillation counting analysis relative to control"}, "[9]": {"molecular_target": "Sodium-dependent dopamine transporter (Homo sapiens, UniProt Q01959)", "sequence (Q01959 whole entry)": "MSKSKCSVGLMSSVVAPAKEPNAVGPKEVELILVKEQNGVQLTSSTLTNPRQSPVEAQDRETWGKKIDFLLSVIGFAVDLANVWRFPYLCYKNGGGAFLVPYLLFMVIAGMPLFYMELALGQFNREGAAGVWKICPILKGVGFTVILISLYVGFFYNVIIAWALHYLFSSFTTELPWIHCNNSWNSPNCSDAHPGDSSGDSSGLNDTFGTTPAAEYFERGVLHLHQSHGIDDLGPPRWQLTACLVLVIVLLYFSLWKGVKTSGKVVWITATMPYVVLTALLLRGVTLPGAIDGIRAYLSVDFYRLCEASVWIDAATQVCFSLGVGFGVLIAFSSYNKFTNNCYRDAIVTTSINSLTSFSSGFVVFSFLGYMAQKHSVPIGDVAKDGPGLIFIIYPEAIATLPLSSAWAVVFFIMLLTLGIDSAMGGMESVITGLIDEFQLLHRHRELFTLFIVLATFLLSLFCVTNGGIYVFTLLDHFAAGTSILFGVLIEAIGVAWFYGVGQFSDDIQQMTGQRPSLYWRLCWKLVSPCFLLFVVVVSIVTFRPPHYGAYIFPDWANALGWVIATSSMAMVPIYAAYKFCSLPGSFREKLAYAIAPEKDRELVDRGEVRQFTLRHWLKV", "experiment": "Displacement of […] from recombinant human Dopamine transporter after 120 mins by scintillation counting analysis", "assay_type": "ADME"}, "[10]": {"molecular_target": "Epidermal growth factor receptor (Homo sapiens) (UniProt P00533)", "sequence (P00533 whole entry)": "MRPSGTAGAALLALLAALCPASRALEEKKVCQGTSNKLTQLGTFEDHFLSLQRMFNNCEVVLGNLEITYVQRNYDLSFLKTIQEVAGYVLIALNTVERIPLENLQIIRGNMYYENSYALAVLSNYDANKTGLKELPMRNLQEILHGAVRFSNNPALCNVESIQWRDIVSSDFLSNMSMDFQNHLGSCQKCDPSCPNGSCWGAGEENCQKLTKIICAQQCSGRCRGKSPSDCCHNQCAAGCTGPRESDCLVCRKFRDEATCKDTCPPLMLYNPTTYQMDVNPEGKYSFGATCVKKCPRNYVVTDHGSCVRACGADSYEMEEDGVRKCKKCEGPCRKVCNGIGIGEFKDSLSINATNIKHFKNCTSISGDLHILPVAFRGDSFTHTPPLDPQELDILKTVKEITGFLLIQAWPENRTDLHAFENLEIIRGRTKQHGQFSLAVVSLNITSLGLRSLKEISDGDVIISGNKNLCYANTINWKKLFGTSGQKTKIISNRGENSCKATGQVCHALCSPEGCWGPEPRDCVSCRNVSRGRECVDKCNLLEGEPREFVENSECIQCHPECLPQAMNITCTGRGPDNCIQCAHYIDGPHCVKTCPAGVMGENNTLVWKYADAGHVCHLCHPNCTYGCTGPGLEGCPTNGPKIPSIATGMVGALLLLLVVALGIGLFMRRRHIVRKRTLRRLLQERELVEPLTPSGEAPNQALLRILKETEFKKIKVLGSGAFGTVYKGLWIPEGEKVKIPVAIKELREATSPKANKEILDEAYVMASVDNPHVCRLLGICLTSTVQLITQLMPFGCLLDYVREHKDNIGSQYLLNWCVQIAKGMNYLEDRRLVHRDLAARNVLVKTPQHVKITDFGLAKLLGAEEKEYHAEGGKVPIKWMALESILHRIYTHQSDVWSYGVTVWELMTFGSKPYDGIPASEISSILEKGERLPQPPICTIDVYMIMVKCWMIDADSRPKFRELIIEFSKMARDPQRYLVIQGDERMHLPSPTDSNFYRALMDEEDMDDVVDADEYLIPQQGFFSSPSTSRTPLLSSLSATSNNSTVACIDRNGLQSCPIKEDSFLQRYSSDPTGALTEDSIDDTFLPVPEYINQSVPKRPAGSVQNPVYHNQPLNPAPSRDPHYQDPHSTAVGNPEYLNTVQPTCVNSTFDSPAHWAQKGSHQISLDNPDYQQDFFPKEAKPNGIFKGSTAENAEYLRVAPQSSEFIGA", "experiment": "Displacement of [125I]-EGF from human EGF receptor at 10 uM incubated for 60 mins by scintillation counting analysis relative to control"}, "[11]": {"experiment": "Hepatic intrinsic clearance in mouse liver microsomes at 1 uM preincubated for 5 mins followed by NADPH addition and measured up to 45 mins by LC-MS/MS analysis", "assay_type": "ADME, Microsome", "details": "read-out: CLH"}, "[12]": {"molecular_target": "Metabotropic glutamate receptor 7 (Homo sapiens) (UniProt Q14831)", "experiment": "Agonist activity at human mGlu7 receptor", "details": "tested as the 2H-labelled form"}, "[13]": {"molecular_target": "Alpha-1A adrenergic receptor (Homo sapiens) (UniProt P35348)", "sequence (P35348 whole entry)": "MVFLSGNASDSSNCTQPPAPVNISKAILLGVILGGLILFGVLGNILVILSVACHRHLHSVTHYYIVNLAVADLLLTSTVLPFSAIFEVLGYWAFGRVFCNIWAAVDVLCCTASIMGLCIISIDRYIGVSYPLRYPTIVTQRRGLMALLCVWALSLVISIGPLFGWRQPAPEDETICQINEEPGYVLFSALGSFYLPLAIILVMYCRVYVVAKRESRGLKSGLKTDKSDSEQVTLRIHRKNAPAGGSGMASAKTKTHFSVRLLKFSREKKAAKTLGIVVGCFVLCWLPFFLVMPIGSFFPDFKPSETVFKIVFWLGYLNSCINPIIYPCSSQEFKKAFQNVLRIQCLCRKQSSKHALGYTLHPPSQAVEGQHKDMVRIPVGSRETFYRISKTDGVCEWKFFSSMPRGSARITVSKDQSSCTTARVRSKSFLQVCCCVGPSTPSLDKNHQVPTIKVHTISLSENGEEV", "experiment": "Displacement of [3H]-Prazosin from human recombinant adrenergic alpha 1A receptor at 10 uM incubated for 60 mins by scintillation counting analysis relative to control"}, "[14]": {"experiment": "Half-life in Sprague-Dawley rat at 0.2 to 0.25 mg/kg, iv measured upto 24 hrs by LC/MS/MS analysis", "assay_type": "ADME, organism-based", "details": "in vivo, dose 0.2-0.25 mg/kg"}, "[15]": {"experiment": "Plasma clearance in Sprague-Dawley rat at 0.2 to 0.25 mg/kg, iv measured upto 24 hrs by LC/MS/MS analysis", "assay_type": "ADME, organism-based", "details": "dose 0.2-0.25 mg/kg"}, "[16]": {"experiment": "Volume of distribution at steady state in Sprague-Dawley rat at 0.2 to 0.25 mg/kg, iv measured upto 24 hrs by LC/MS/MS analysis", "assay_type": "ADME, organism-based", "details": "in vivo, dose 0.2-0.25 mg/kg, read-out: Vdss"}, "[17]": {"molecular_target": "hERG (KCNH2) (Homo sapiens, UniProt Q12809)", "experiment": "Displacement of [3H]-Astemizole from human recombinant full length ERG channel at 10 uM incubated for 60 mins by scintillation counting analysis relative to control", "details": "probe [3H]-astemizole"}, "[18]": {"molecular_target": "Metabotropic glutamate receptor 7 (Rattus norvegicus, UniProt P35400)", "sequence (P35400 whole entry)": "as the sequence (Q14831 whole entry) above, with R5G, A27V, N454H, S488T, A520S, D578N counted along it", "experiment": "Positive allosteric modulation of rat mGlu7 expressed in HEK293 cells co- expressing GIRK assessed as potentiation of L-AP4-induced thallium flux incubated for 140 sec by FluoZin2-AM dye based fluorescence analysis", "assay_type": "cell-based"}, "[19]": {"molecular_target": "dopamine transporter (DAT) (Homo sapiens, UniProt Q01959)", "sequence (Q01959 whole entry)": "as the sequence (Q01959 whole entry) above", "experiment": "Displacement of […] from recombinant human Dopamine transporter at 10 uM after 120 mins by scintillation counting analysis relative to control", "assay_type": "ADME"}}, "note": "Active and inactive are the calls of the source. No cut-off for these calls is given here."}
{"smiles": "COc1cc(F)cc2c(N3CCN(c4ccccc4F)CC3)c(C#N)cnc12", "values": [{"measurement": "inhibition", "setting": "[1]; tested as the 2H-labelled form", "value": "< 50", "unit": "%"}, {"measurement": "inhibition", "setting": "[2]; tested as the 2H-labelled form", "value": 77, "unit": "%"}, {"measurement": "Activity", "setting": "[3]", "value": "Active"}, {"measurement": "inhibition", "setting": "[4]; tested as the 2H-labelled form", "value": "< 50", "unit": "%"}, {"measurement": "CLint scaled at 1 µM", "setting": "[5]", "value": 56, "unit": "mL/min/kg"}, {"measurement": "inhibition", "setting": "[6]; tested as the 2H-labelled form", "value": "< 50", "unit": "%"}, {"measurement": "inhibition", "setting": "[7]; tested as the 2H-labelled form", "value": "< 50", "unit": "%"}, {"measurement": "inhibition", "setting": "[8]; tested as the 2H-labelled form", "value": "< 50", "unit": "%"}, {"measurement": "IC50", "setting": "[9]", "value": "> 10000", "unit": "nM"}, {"measurement": "inhibition", "setting": "[10]; tested as the 2H-labelled form", "value": "< 50", "unit": "%"}, {"measurement": "CLint scaled at 1 µM", "setting": "[11]", "value": 87, "unit": "mL/min/kg"}, {"measurement": "Activity", "setting": "[12]", "value": "inactive"}, {"measurement": "inhibition", "setting": "[13]; tested as the 2H-labelled form", "value": "< 50", "unit": "%"}]}
{"smiles": "COc1cccc2c(N3CCN(c4ccccc4F)CC3)c(C#N)cnc12", "values": [{"measurement": "inhibition", "setting": "[1]", "value": "< 50", "unit": "%"}, {"measurement": "inhibition", "setting": "[2]", "value": "< 50", "unit": "%"}, {"measurement": "half-life", "setting": "[14]", "value": 45, "unit": "min"}, {"measurement": "clearance", "setting": "[15]", "value": 47.5, "unit": "mL/min/kg"}, {"measurement": "inhibition", "setting": "[4]", "value": "< 50", "unit": "%"}, {"measurement": "Vd", "setting": "[16]", "value": 4.1, "unit": "L/kg"}, {"measurement": "inhibition", "setting": "[6]", "value": "< 50", "unit": "%"}, {"measurement": "inhibition", "setting": "[7]", "value": "< 50", "unit": "%"}, {"measurement": "inhibition", "setting": "[8]", "value": "< 50", "unit": "%"}, {"measurement": "inhibition at 1 h, 10 µM", "setting": "[17]", "value": "< 50", "unit": "%"}, {"measurement": "EC50", "setting": "[18]", "value": 879, "unit": "nM"}, {"measurement": "Ki", "setting": "[9]", "value": 430, "unit": "nM"}, {"measurement": "inhibition", "setting": "[10]", "value": "< 50", "unit": "%"}, {"measurement": "inhibition at 2 h, 10 µM", "setting": "[19]", "value": 85, "unit": "%"}, {"measurement": "inhibition", "setting": "[13]", "value": "< 50", "unit": "%"}]}
